Results as given in PubChem BioAssay AID2060486 (Molecular Pharmacology Branch, DTP, NCI, 2025).

System: IGROV1 complex spheroids (HUVEC, MSC), viability % test/control
Test: Anticancer human tumor IGROV1 cell line growth inhibition [GQUAD];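 note: spheroids exposed to compounds for 7 days before readout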;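 for viability, T/C: 100% = DMSO vehicle control viability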
Settings: for IC50: curve of first compound; for viability, T/C: stronger effect = lower value; active = viability on the fitted dose curve at most 10% of control; inactive = the rest
Method in brief: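 Viability of tumor cells grown as complex spheroids with endothelial and stromal cells, exposed to drug combinations. Top concentration at or near clinical Cmax (else 10 microM), diluted in half-log increments.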

[1] = second compound 0.0316 µM, first compound 0.0316 µM
[2] = second compound 0.0316 µM, first compound 0.1 µM
[3] = second compound 0.0316 µM, first compound 0.316 µM
[4] = second compound 0.0316 µM, first compound 1 µM
[5] = second compound 0.0316 µM, first compound 3.16 µM
[6] = second compound 0.0316 µM, first compound 10 µM
[7] = second compound 0.1 µM, first compound 0.0316 µM
[8] = second compound 0.1 µM, first compound 0.1 µM
[9] = second compound 0.1 µM, first compound 0.316 µM
[10] = second compound 0.1 µM, first compound 1 µM
[11] = second compound 0.1 µM, first compound 3.16 µM
[12] = second compound 0.1 µM, first compound 10 µM
[13] = second compound 0.316 µM, first compound 0.0316 µM
[14] = second compound 0.316 µM, first compound 0.1 µM
[15] = second compound 0.316 µM, first compound 0.316 µM
[16] = second compound 0.316 µM, first compound 1 µM
[17] = second compound 0.316 µM, first compound 3.16 µM
[18] = second compound 0.316 µM, first compound 10 µM
[19] = second compound 1 µM, first compound 0.0316 µM
[20] = second compound 1 µM, first compound 0.1 µM
[21] = second compound 1 µM, first compound 0.316 µM
[22] = second compound 1 µM, first compound 1 µM
[23] = second compound 1 µM, first compound 3.16 µM
[24] = second compound 1 µM, first compound 10 µM
[25] = second compound 3.16 µM, first compound 0.0316 µM
[26] = second compound 3.16 µM, first compound 0.1 µM
[27] = second compound 3.16 µM, first compound 0.316 µM
[28] = second compound 3.16 µM, first compound 1 µM
[29] = second compound 3.16 µM, first compound 3.16 µM
[30] = second compound 3.16 µM, first compound 10 µM
[31] = second compound 10 µM, first compound 0.0316 µM
[32] = second compound 10 µM, first compound 0.1 µM
[33] = second compound 10 µM, first compound 0.316 µM
[34] = second compound 10 µM, first compound 1 µM
[35] = second compound 10 µM, first compound 3.16 µM
[36] = second compound 10 µM, first compound 10 µM

COc1ncnc(C2CC2)c1-c1ncc2cnn(Cc3ccc(-c4nc(C(F)(F)F)cn4C(C)C)cc3)c2n1 + Cc1[nH]c2ccc(F)cc2c1-c1nc2c3cccnc3c3ncccc3c2[nH]1
> 10000 nM: IC50 (second compound 0.0316 µM) | IC50 (second compound 0.1 µM) | IC50 (second compound 0.316 µM)
inactive: viability, T/C [1] 95.7% | viability, T/C [2] 79.5% | viability, T/C [3] 89.6% | viability, T/C [4] 89.9% | viability, T/C [5] 90.3% | viability, T/C [6] 93.2% | viability, T/C [7] 100% | viability, T/C [8] 74.6% | viability, T/C [9] 79.7% | viability, T/C [10] 80.7% | viability, T/C [11] 100% | viability, T/C [12] 71.2% | viability, T/C [13] 63.7% | viability, T/C [14] 51.8% | viability, T/C [15] 72.1% | viability, T/C [16] 62.4% | viability, T/C [17] 72.8% | viability, T/C [18] 46.1%
< 31.6 nM: IC50 (second compound 1 µM) | IC50 (second compound 3.16 µM) | IC50 (second compound 10 µM)
active: viability, T/C [19] 3.69% | viability, T/C [20] 3.51% | viability, T/C [21] 4.12% | viability, T/C [22] 3.46% | viability, T/C [23] 4.03% | viability, T/C [24] 3.74% | viability, T/C [25] 2.91% | viability, T/C [26] 3.63% | viability, T/C [27] 3.35% | viability, T/C [28] 3.99% | viability, T/C [29] 3.54% | viability, T/C [30] 2.75% | viability, T/C [31] 3.12% | viability, T/C [32] 4.19% | viability, T/C [33] 4.15% | viability, T/C [34] 3.3% | viability, T/C [35] 3.45% | viability, T/C [36] 2.6%

Cc1[nH]c2ccccc2c1CCNCc1ccc(/C=C/C(=O)NO)cc1 + Cc1[nH]c2ccc(F)cc2c1-c1nc2c3cccnc3c3ncccc3c2[nH]1
active: viability, T/C (second compound 0.0316 µM, first compound 0.0999 µM) 4.14% | viability, T/C [3] 0.24% | viability, T/C (second compound 0.1 µM, first compound 0.0999 µM) 5.9% | viability, T/C [9] 0.36% | viability, T/C (second compound 0.316 µM, first compound 0.0999 µM) 5.96% | viability, T/C [15] 0.21% | viability, T/C (second compound 1 µM, first compound 0.000999 µM) 3.99% | viability, T/C (second compound 1 µM, first compound 0.00316 µM) 3.36% | viability, T/C (second compound 1 µM, first compound 0.00999 µM) 2.02% | viability, T/C [19] 2.26% | viability, T/C (second compound 1 µM, first compound 0.0999 µM) 2.15% | viability, T/C [21] 0.14% | viability, T/C (second compound 3.16 µM, first compound 0.000999 µM) 2.38% | viability, T/C (second compound 3.16 µM, first compound 0.00316 µM) 2.86% | viability, T/C (second compound 3.16 µM, first compound 0.00999 µM) 1.81% | viability, T/C [25] 1.14% | viability, T/C (second compound 3.16 µM, first compound 0.0999 µM) 0.49% | viability, T/C [27] 0.09% | viability, T/C (second compound 10 µM, first compound 0.000999 µM) 3.6% | viability, T/C (second compound 10 µM, first compound 0.00316 µM) 3.82% | viability, T/C (second compound 10 µM, first compound 0.00999 µM) 2.17% | viability, T/C [31] 1.25% | viability, T/C (second compound 10 µM, first compound 0.0999 µM) 0.54% | viability, T/C [33] 0.17%
22.8 nM: IC50 (second compound 0.0316 µM)
inactive: viability, T/C (second compound 0.0316 µM, first compound 0.000999 µM) 107% | viability, T/C (second compound 0.0316 µM, first compound 0.00316 µM) 88.2% | viability, T/C (second compound 0.0316 µM, first compound 0.00999 µM) 80% | viability, T/C [1] 40.3% | viability, T/C (second compound 0.1 µM, first compound 0.000999 µM) 91.8% | viability, T/C (second compound 0.1 µM, first compound 0.00316 µM) 102% | viability, T/C (second compound 0.1 µM, first compound 0.00999 µM) 64.4% | viability, T/C [7] 32.3% | viability, T/C (second compound 0.316 µM, first compound 0.000999 µM) 61.7% | viability, T/C (second compound 0.316 µM, first compound 0.00316 µM) 67.6% | viability, T/C (second compound 0.316 µM, first compound 0.00999 µM) 48.2% | viability, T/C [13] 28.6%
17.6 nM: IC50 (second compound 0.1 µM)
10.6 nM: IC50 (second compound 0.316 µM)
< 0.999 nM: IC50 (second compound 1 µM) | IC50 (second compound 3.16 µM) | IC50 (second compound 10 µM)

O=C(NO)c1cnc(N2CCN(S(=O)(=O)c3ccc4ccccc4c3)CC2)nc1 + Cc1[nH]c2ccc(F)cc2c1-c1nc2c3cccnc3c3ncccc3c2[nH]1
96.2 nM: IC50 (second compound 0.1 µM)
98.9 nM: IC50 (second compound 0.0316 µM)
active: viability, T/C [4] 0.35% | viability, T/C [5] 0.04% | viability, T/C [6] 0.07% | viability, T/C [10] 0.3% | viability, T/C [11] 0.05% | viability, T/C [12] 0.06% | viability, T/C [16] 0.3% | viability, T/C [17] 0.04% | viability, T/C [18] 0.05% | viability, T/C [19] 2.48% | viability, T/C [20] 1.93% | viability, T/C [21] 2.47% | viability, T/C [22] 0.07% | viability, T/C [23] 0.03% | viability, T/C [24] 0.05% | viability, T/C [25] 1.55% | viability, T/C [26] 1.3% | viability, T/C [27] 0.5% | viability, T/C [28] 0.04% | viability, T/C [29] 0.05% | viability, T/C [30] 0.07% | viability, T/C [31] 1.75% | viability, T/C [32] 1.33% | viability, T/C [33] 0.92% | viability, T/C [34] 0.07% | viability, T/C [35] 0.11% | viability, T/C [36] 0.1%
< 31.6 nM: IC50 (second compound 1 µM) | IC50 (second compound 3.16 µM) | IC50 (second compound 10 µM)
inactive: viability, T/C [1] 87.3% | viability, T/C [2] 49.5% | viability, T/C [3] 12.1% | viability, T/C [7] 91.5% | viability, T/C [8] 47.7% | viability, T/C [9] 20.1% | viability, T/C [13] 91.3% | viability, T/C [14] 40.6% | viability, T/C [15] 17.2%
81.9 nM: IC50 (second compound 0.316 µM)

COc1ccc([C@@H](O)c2cc(-c3ncnc4cc(N5CCOCC5)ccc34)c(F)cc2Cl)nn1 + Cc1cnc(CNC(=O)c2c(=O)c3ccc(N4CCCN(C)CC4)nc3n3c2sc2ccccc23)cn1
active: viability, T/C [5] 5.18% | viability, T/C [6] 5.46% | viability, T/C [11] 4.79% | viability, T/C [12] 3.15% | viability, T/C [16] 6.16% | viability, T/C [17] 4.16% | viability, T/C [18] 3.4% | viability, T/C [22] 6.86% | viability, T/C [23] 4.58% | viability, T/C [24] 2.36% | viability, T/C [26] 9.89% | viability, T/C [27] 8.1% | viability, T/C [28] 4.31% | viability, T/C [29] 3.47% | viability, T/C [30] 1.18% | viability, T/C [32] 9.19% | viability, T/C [33] 9.26% | viability, T/C [34] 4.56% | viability, T/C [35] 2.94% | viability, T/C [36] 1.32%
197 nM: IC50 (second compound 0.0316 µM)
inactive: viability, T/C [1] 62.4% | viability, T/C [2] 64.7% | viability, T/C [3] 40.7% | viability, T/C [4] 11.1% | viability, T/C [7] 30.9% | viability, T/C [8] 34.5% | viability, T/C [9] 18.7% | viability, T/C [10] 7.37% | viability, T/C [13] 25.7% | viability, T/C [14] 25.2% | viability, T/C [15] 14.1% | viability, T/C [19] 19.7% | viability, T/C [20] 17.8% | viability, T/C [21] 16.1% | viability, T/C [25] 12% | viability, T/C [31] 9.31%
< 31.6 nM: IC50 (second compound 0.1 µM) | IC50 (second compound 0.316 µM) | IC50 (second compound 1 µM) | IC50 (second compound 3.16 µM) | IC50 (second compound 10 µM)
